In patent US20260275307A1, “PRIME EDITING SYSTEM BASED ON PERV REVERSE TRANSCRIPTASE” (Jiangxi Agricultural University, priority 2023, published 2026):

Assays:
[1] = test system: fluorescent reporter PFF cell line; test: Small molecules: effect on PE editing efficiency in fluorescent reporter PFF cell line; assay type: cell-based, pig; settings: 20 μM RS-1, 200 ng/mL Nocodazole, FIG. 18A; for PE efficiency: single molecule added to medium after transfection: 40 μM L755507, 0.1 μM Brefeldin A, 10 nM TSA; for increase of editing efficiency: single molecule: 10 nM TSA
Method: From this, it can be expected that some small molecules may also improve the editing efficiency of PE. […] Cells were treated by adding the corresponding concentrations of small molecules or combinations of small molecules, respectively, to the medium after transfection.

primary PFFs = test: Small molecules: effect on PE editing efficiency in primary PFFs; assay type: cell-based, pig; settings: primary PFF; FIG. 18C
Method: Cells were treated by adding the corresponding concentrations of small molecules or combinations of small molecules, respectively, to the medium after transfection.
The effect of Rs-1, Nocodazole, TSA, and the combination of Rs-1+TSA and Rs-1+Nocodazole in primary PFFs was then verified.

[2] = test system: 293T cells co-transfected with fluorescent reporter gene vector; test: 293T cell fluorescence reporter gene co-transfection experiment; assay type: cell-based; settings: Bmx-PERV-RT with 6 mutation sites and combinations; 3 editing forms; FIG. 12
Method: 1×10^5 cells were inoculated into a 24-well culture dish 17-24 hours before cell transfection, and when the cell confluence reached 50-80%, transfection was performed using H4000 reagent (Ingran, China), and each transfection reaction included 200 ng PE editor, 100 ng pegRNA, 100 ng ngRNA, 10 ng fluorescent reporter gene vector and 0.5 μL H4000 reagent. The cells were collected 48 hours after transfection, and detected by flow cytometry (BD, USA), with wild-type fluorescence reporter cells as background, and GFP positive cells were circled with FITC+PE double channel, with GFP ratio as editing efficiency.

primary PFF cells = test: Editing efficiency of PE editors in primary PFF cells (high throughput sequencing of target sites); assay type: cell-based, pig
Method: The sows for 31 days gestation were sacrificed and dissected, the whole uterus was taken out, the fetus and the fetal membrane were taken out one by one, and transferred into a DMEM solution containing 5% (v/v) penicillin and streptomycin (v/v; Gibco: 15140-122) for storage in a refrigerator at 4° C. In a clean bench, the isolated fetus was transferred one by one to a sterile 10 cm culture dish, and the head, viscera, limbs and tail of the fetus were removed with sterile forceps and scissors; the remaining part of the fetus was cleaned with a PBS solution containing 5% (v/v) penicillin and streptomycin (Gibco: 15140-122)), and then the remaining part of the fetus was cut to about 1 mm^3 within 10-15 minutes, and 5 ml of collagenase working solution was added to the cut tissue; the tip of 1 ml of sterile pipettor was cut off with scissors, and the cut tissue pieces were transferred to a 15 ml sterile centrifuge tube, sealed and placed in a shaker at 37° C. for incubation for 2 hours. After that, the centrifuge tube was centrifuged at 1000 rpm for 5 minutes, the upper collagenase working solution was removed, and the incubated tissues were evenly transferred into two T75 culture dishes and cultured in a 37° C., 5% CO2 sterile incubator. […]

[3] = test system: immortalized BFP fluorescence reporter PFF cell line; test: Editing efficiency of PE editors in immortalized BFP fluorescence reporter PFF cell line (flow cytometry, GFP ratio); assay type: cell-based, Bama pig; settings: epPE editors vs PE2c-Puro and each other, FIG. 3
Method: The immortalized BFP fluorescence reporter PFF cell line was cultured in high glucose DMEM (Gibco, USA) medium containing 12% fetal bovine serum ((v/v), Excell, China) and 1% penicillin ((v/v), BI, China). The cell line was constructed by the laboratory, firstly, the SV40 large T antigen was site-directed knocked into the H11 safe harbor site of the primary PFFs of Bama pig, and then the BFP vector was site-directed integrated into the Rosa26 safe harbor site of immortalized PFF by the CRISPR Cas9 technology, and finally the BFP fluorescence reporter PFF cell line was obtained by serial passage. […]
After the cells were digested with 0.125% trypsin (Gibco, USA), the cells were collected into a 1.5 mL EP tube, centrifuged at 200×g for 5 minutes, the supernatant was discarded, 50 μL of 1×PBS buffer was added to resuspend the cells, and the cells were detected by using a flow cytometer (BD, USA), the wild-type fluorescence reporter cells were used as the background, and GFP-positive cells were circled by using two channels of FITC+PE, and the GFP ratio was the editing efficiency.

[4] = test system: sheep fetal fibroblasts (SFF); test: Editing efficiency of PE editors in sheep fetal fibroblasts; assay type: cell-based; settings: pPE editors with 4 point mutations; FIG. 9
Method: (§1) Canine fetal fibroblasts (DFF) were isolated from a female canine fetus on 30 days of gestation, and the specific establishment method was the same as that of PFF; goat fetal fibroblasts (SFF) were given by Yunnan Agriculture University Weijiang Laboratory, and the cells were isolated from a small tailed han sheep fetus; 293T cells were purchased from the Cell Bank of the Type Culture Collection Committee of Chinese Academy. All three cells were cultured in high-glucose DMEM (Gibco, USA) culture medium containing 12% (v/v) fetal bovine serum (Excell, China) and 1% (v/v) penicillin-streptomycin (BI, China) at 37° C. in a 5% CO2 incubator.
(§2) DFF and SFF: The method is similar to the transfection method of PFF, and the difference lies in that when DFF and SFF were transformed, the cells were shocked by using the EN-150 program, then again by using the CA-113 program.
(§3) SFF and DFF cells: 3 μg/mL puromycin (Sigma, Japan) was added 48 hours after electrotransformation for screening for 2 days, and then the culture medium was changed for further culture for 2 days.
(§4) The method is same with the detection of editing efficiency of PFF.

HEK293T cells = test: Editing efficiency of PE editors in 293T cells (puromycin screening, sequencing); assay type: cell-based; settings: pPE editors with 4 point mutations, FIG. 9
Method: as §1
293T cells: cells were inoculated into a 24-well culture dish 1-2 days before cell transfection, and when the cell confluency reached 50-60%, the cells were transfected with Lipofectamine 3000 reagent (Invitrogen, USA), and each transfection reaction included 1 μg PE editor, 0.5 μg pegRNA, 0.5 μg ngRNA and 1 μL Lipofectamine 3000 reagent.
293T cells: after transfection, 3 μg/mL puromycin (Sigma, Japan) was added for screening for 3 days, and then the culture medium was changed and cultured for another 2 days.
as §4

[5] = test system: dog fetal fibroblasts (DFF); test: Editing efficiency of PE editors in dog fetal fibroblasts; assay type: cell-based; settings: pPE editors with 4 point mutations; canine fetal fibroblasts; FIG. 9
Method: as §1, §2, §3, §4

In the case of `COC(=O)Nc1nc2ccc(C(=O)c3cccs3)cc2[nH]1` [Nocodazole], the PE efficiency [1] was “significantly (P<0.05 or P<0.01) improved PE efficiency”, the “increase of editing efficiency” value [1] was 66.9% and the “improvement of overall editing efficiency for the 6 sites” value (“improvement” below) (primary PFFs) was 36.4%.
For `CC(/C=C/C(=O)NO)=C\[C@@H](C)C(=O)c1ccc(N(C)C)cc1` [TSA, Trichostatin A], the PE efficiency [1] was “significantly (P<0.05 or P<0.01) improved PE efficiency”, the “increase of editing efficiency” value [1] was 34.4% and the “improvement” value (primary PFFs) was 14.3%.
“M5.1: pPE editor, PERV-RT variant carrying 5 amino acid mutations (D199N, T305K, W312F, L602W, V222A); SEQ ID NO: 45” was tested, and the “efficiency (GFP ratio)” value [2] was “overall optimal efficiency in 3 editing forms”.
In the case of `CCCCCCNC(=O)Nc1ccc(S(=O)(=O)Nc2ccc(CCNC[C@H](O)COc3ccc(O)cc3)cc2)cc1` [L755507], the PE efficiency [1] was “significantly (P<0.05 or P<0.01) improved PE efficiency”.
In the case of `O=C(Nc1ccc(Br)cc1)c1ccc(Br)c(S(=O)(=O)NCc2ccccc2)c1` [Rs-1], the PE efficiency [1] was “significantly (P<0.05 or P<0.01) improved PE efficiency”, the “increase of editing efficiency” value [1] was 32.7% and the “improvement” value (primary PFFs) was 20.8%.
With “epPE-AC-M3Δ-Puro: PE editor: nCas9 fused to PERV-AC-NC and PERV-AC-RT (ΔRNase H) with D199N, T305K, W312F; SEQ ID NO: 22” the average editing efficiency (primary PFF cells; 6 editing sites tested in the primary PFF, FIG. 4) was “higher than that of epPE-B-M3Δ-Puro” and the “editing efficiency (GFP ratio)” value [3] was “higher than that of epPE-B-M3Δ-Puro”.
With `C[C@H]1CCC/C=C/[C@@H]2C[C@H](O)C[C@H]2[C@H](O)/C=C/C(=O)O1` [BrefeldinA, Brefeldin A] the PE efficiency [1] was “significantly (P<0.05 or P<0.01) improved PE efficiency”.
For “epPE-AC-M4Δ*-Puro: epPE-AC-M3Δ-Puro with RT amino acids 329-332 mutated from EKGE to PGTL; SEQ ID NO: 23”, the “editing efficiency (GFP ratio)” value [3] was “higher than that of epPE-B-M4Δ*-Puro”.
“bmx-pPE-C-M4-puro: pPE editor, Bama pig type C PERV-RT with D199N, T305K, W312F, L602W; SEQ ID NO: 31” was tested, and the editing efficiency [4] was “higher efficiency at most sites”, the editing efficiency (primary PFF cells; pPE editors with 4 point mutations in PFF, FIG. 8) was “overall higher efficiency” and the editing efficiency (HEK293T cells) was “higher efficiency at most sites”. For the same molecule, the editing efficiency [5] was “higher efficiency at most sites”.
